Experimental data from patent publication US9820486B2, “Compositions and methods for controlling nematodes” (Monsanto Technology LLC, priority 2009, dated 2017).
Values joined by “and” are separate entries in the source; they are usually repeats but may differ in a detail not shown here. Equal entries are not always repeated. Marks after values point to notes of the source that are not given here.

Experiments:
[1] = tested on: Meloidogyne incognita; test: M. incognita miniaturized greenhouse assay on cucumber seedlings (root galling); assay type: in vivo; conditions: cucumber roots, average of triplicate gall rating; for 8 ppm gall ratings: scale 0=0-5%, 1=6-20%, 2=21-50%, 3=51-100% root mass galled; for 1 ppm gall ratings: scale 0-3
Method: The test compound is dissolved in an acetone solution and added to water. A sprouted cucumber seedling is placed into a vial with dry sand and the water-chemical solution is added immediately. Twenty four hours later Meloidogyne incognita eggs are added to the vials and 10 to 12 days later the roots are evaluated for nematode galling.
Cucumber seeds are sprouted for 3 days in moist paper towels. Acceptable sprouts should be 3 to 4 cm long with several lateral roots just emerging. Stock solutions of chemistry are prepared in a mixture of acetone and Triton X100 (412 mg in 500 mL) to a final concentration of 5 mg/mL. The chemical stock solution is then added to 10 mL deionized water plus 0.015% Triton X100 and mixed thoroughly. This is enough to test each condition in triplicate. Ten mL dry sand is added to each vial. At this time the solubility of the chemistry is visually determined and recorded as either ppt (large precipitates) or cloudy (fine precipitates). Seedlings are planted by tilting the vial and laying the seedling in the correct orientation so that the cotyledons are just above the sand and then tilting back to cover the radicles with sand. 3.3 ml water/chemical mix is added to each vial and the vials placed in racks under fluorescent light banks. The vials are inoculated two days after planting by adding 500 vermiform M. incognita eggs to each vial in 50 uL of deionized or spring water. The vials are then kept under the fluorescent lamps at ambient room temperature and watered as needed with 1 mL deionized water, usually twice during duration of test. Harvest of the cucumber plants is done 10 to 12 days after inoculation by washing sand off the roots. A root gall rating and visual phytotoxicity rating is assigned using the following scales: Gall rating scale (Gall: % root mass galled): 0=0-5%; 1=6-20%; 2=21-50%; and 3=51-100%. The average of the triplicate gall rating is then calculated: green=0.00-0.33 (no galls); yellow=0.67-1.33 (mild galling); orange=1.67-2.33 (moderate galling); red=2.67-3.00 (severe galling). Visual phytotoxicity scale is also assigned (Vis. tox; visual reduction in root mass compared to the control): rs1=mild stunting; rs2=moderate stunting; rs3=severe stunting.

[2] = tested on: root knot nematode (RKN); test: RKN greenhouse soil assay on cucumber plants; assay type: in vivo, Meloidogyne incognita; conditions: 0 day treatment, rated 14 days after egg inoculation
From the text: Cucumber seeds are planted in a sandy soil mixture in two inch square plastic pots. When the cotyledons are fully opened and just as the first leaf begins to emerge, usually 7 days after planting, chemistry for the 7-day treatment is applied. One week later the chemistry for the 0 day treatment is applied. Separate plants are used for each application. The plants are generally in the 1-2 leaf stage now. At least four hours after the chemistry application the pots are inoculated with root knot nematode (RKN) eggs. Plants are rated for galling 14 days after the egg inoculation.
(§1) One milligram of chemistry per four pots is equal to one kilogram per hectare of chemical. A standard test uses four replications. For rates above 2 kg/ha, the desired amount of chemical is weighed into a 30 ml vial (example: 8 kg/ha rate=8 mg chemical in 30 ml vial). The chemical is dissolved in 2 ml of appropriate solvent, generally acetone. For rates below 2 kg/ha, 2 milligrams of chemistry is weighed into the vial and dissolved in 2 ml of the solvent. The appropriate amount of chemical concentrate is then pipetted into a separate 30 ml vial and solvent is added to bring the volume to 2 ml (example 0.5 kg/ha=0.5 ml of concentrate+1.5 ml solvent). Each dissolved concentrate is then brought to a total of 20 milliliters using 0.05% Triton X 100 surfactant solution.
(§2) Pots to be treated are moist but not saturated. To each of four pots, five milliliters of the appropriate chemical solution is pipetted to the media surface making sure to avoid contact with the base of the plant. Immediately following chemical application, using a mist nozzle, the pot surface is wetted sufficiently to saturate the pot watering in the chemistry. The chemical application is done in the morning.
(§3) Nematode eggs, either SCN or RKN, are added to distilled water to create a concentration of 1000 vermiform eggs […]. At least four hours after chemical treatment the eggs are applied to the treated pots plus non-treated check plants. A small hole about 1 cm deep is punched into the pot surface. […]

[3] = tested on: soybean cyst nematode (SCN); test: SCN greenhouse soil assay on soybean plants; assay type: in vivo, Heterodera glycines; conditions: 0 day treatment, harvested 28 days after egg inoculation, tests a and b
From the text: Soybeans seeds are planted in 100% sand in two inch square plastic pots. Chemical treatment is done when the soybeans show the first trifoliate beginning to emerge about 10 to 12 days after planting. At least four hours after chemical application the nematode soybean cyst nematode (SCN) eggs are applied and 28 days after the egg inoculation the test is harvested.
as §1, §2
as §3, with “surface. One milliliter of the nematode egg slurry is pipetted into the hole. Immediately afterwards the hole is gently covered. Watering of the test plants is then restricted to only water as needed to prevent wilt for a period of 24 hours.” for “surface.”

SMILES | 8 ppm gall ratings [1] | 1 ppm gall ratings [1] | percent control (galling reduction) relative to the control blank treatment, 0 day 1 kg/ha rate [2] [%] | percent control (cyst reduction) relative to the control blank treatment, 0 day 0.25 kg/ha rate [3]
Clc1ccc(-c2noc(Cc3ccco3)n2)cc1 [Name 1, 3-(4-chlorophenyl)-5-(furan-2-ylmethyl)-1,2,4-oxadiazole] | 1.3^a |  |  | 
Clc1ccc(-c2coc(-c3ccco3)n2)cc1 [Name 8, 4-(4-chlorophenyl)-2-(furan-2-yl)oxazole] | 0.67^d |  |  | 
Cc1ccc(-c2coc(-c3ccco3)n2)c(C)c1 [Name 7, 4-(2,4-dimethylphenyl)-2-(furan-2-yl)oxazole] | 1.33^c |  |  | 
Clc1ccc(-c2cnc(Sc3cccs3)o2)cc1 [Name 9, 5-(4-chlorophenyl)-2-(thiophen-2-ylthio)oxazole] | 1.33^d |  |  | 
Clc1ccc(Cc2nsc(-c3ccco3)n2)cc1 [Name 5, 3-(4-chlorobenzyl)-5-(furan-2-yl)-1,2,4-thiadiazole] | 0.67^b |  |  | 
Clc1ccc(-c2cnc(-n3cccc3)o2)cc1 [Name 10, 5-(4-chlorophenyl)-2-(1H-pyrrol-1-yl)oxazole] |  | 1.33 | 100 | 
Clc1cccc(-c2noc(Cc3ccco3)n2)c1 [Name 2, 3-(3-chlorophenyl)-5-(furan-2-ylmethyl)-1,2,4-oxadiazole] | 1.3^a |  |  | 
Clc1cccc(Oc2noc(-c3ccco3)n2)c1 [Name 4, 3-(3-chlorophenoxy)-5-(furan-2-yl)-1,2,4-oxadiazole] | 0^b |  | 83 | 67% and 78%
CNC(=O)O/N=C(\SC)C(=O)N(C)C [Oxamyl, reference compound] |  | 1.33^e |  | 67%^b
Clc1ccc(-c2coc(-c3ccco3)n2)c(Cl)c1 [Name 6, 4-(2,4-dichlorophenyl)-2-(furan-2-yl)oxazole] | 0.33^c |  |  | 
Clc1ccc(Oc2noc(-c3ccco3)n2)cc1 [Name 3, 3-(4-chlorophenoxy)-5-(furan-2-yl)-1,2,4-oxadiazole] | 0^b |  | 89 | 79%^a, 79%^b
